Experimental data published in patent US9981959B2, “Thiazolyl and oxazolyl urea, thiourea, guanidine and cyanoguanidine compounds as TrkA kinase inhibitors” (Array BioPharma Inc., priority 2012, dated 2018).

Experiments:
AURKA = biological target: T1, AURKA (Homo sapiens, UniProt O14965); assay: KinaseProfiler off-target kinase profiling; type: biochemical; settings: 10 μM, ATP near Km
T1 construct: purchased Millipore (KinaseProfiler service)
Method in brief: (§1)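 Each kinase is assayed with ATP close to its own Km in the presence of 10 μM compound, in duplicate. The two replicates are averaged and expressed as percent of control.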

Axl = biological target: T2, Axl (Homo sapiens, UniProt P30530); assay: KinaseProfiler off-target kinase profiling; type: biochemical; settings: 10 μM, ATP near Km
T2 construct: purchased Millipore (KinaseProfiler service)
Method in brief: as §1

BLK_m = biological target: T3, BLK_m (Mus musculus, UniProt P16277); assay: KinaseProfiler off-target kinase profiling; type: biochemical; settings: 10 μM, ATP near Km
T3 construct: purchased Millipore (KinaseProfiler service)
Method in brief: as §1

Bmx = biological target: T4, Bmx (Homo sapiens, UniProt P51813); assay: KinaseProfiler off-target kinase profiling; type: biochemical; settings: 10 μM, ATP near Km
T4 construct: purchased Millipore (KinaseProfiler service)
Method in brief: as §1

BrSK2 = biological target: T5, BrSK2 (Homo sapiens, UniProt Q8IWQ3); assay: KinaseProfiler off-target kinase profiling; type: biochemical; settings: 10 μM, ATP near Km
T5 construct: purchased Millipore (KinaseProfiler service)
Method in brief: as §1

DAPK1 = biological target: T6, DAPK1 (Homo sapiens, UniProt P53355); assay: KinaseProfiler off-target kinase profiling; type: biochemical; settings: 10 μM, ATP near Km
T6 construct: purchased Millipore, Inc. (KinaseProfiler service)
Method in brief: as §1

DAPK3 = biological target: T7, DAPK3 (Homo sapiens, UniProt O43293); assay: KinaseProfiler off-target kinase profiling; type: biochemical; settings: 10 μM, ATP near Km
T7 construct: purchased Millipore, Inc. (KinaseProfiler service)
Method in brief: as §1

EphA3 = biological target: T8, EphA3 (Homo sapiens, UniProt P29320); assay: KinaseProfiler off-target kinase profiling; type: biochemical; settings: 10 μM, ATP near Km
T8 construct: purchased Millipore, Inc. (KinaseProfiler service)
Method in brief: as §1

EphB3 = biological target: T9, EphB3 (Homo sapiens, UniProt P54753); assay: KinaseProfiler off-target kinase profiling; type: biochemical; settings: 10 μM, ATP near Km
T9 construct: purchased Millipore, Inc. (KinaseProfiler service)
Method in brief: as §1

Fms = biological target: T10, Fms (Homo sapiens, UniProt P07333); assay: KinaseProfiler off-target kinase profiling; type: biochemical; settings: 10 μM, ATP near Km
T10 construct: purchased Millipore, Inc. (KinaseProfiler service)
Method in brief: as §1

GRK5 = biological target: T11, GRK5 (Homo sapiens, UniProt P34947); assay: KinaseProfiler off-target kinase profiling; type: biochemical; settings: 10 μM, ATP near Km
T11 construct: purchased Millipore, Inc. (KinaseProfiler service)
Method in brief: as §1

GRK6 = biological target: T12, GRK6 (Homo sapiens, UniProt P43250); assay: KinaseProfiler off-target kinase profiling; type: biochemical; settings: 10 μM, ATP near Km
T12 construct: purchased Millipore, Inc. (KinaseProfiler service)
Method in brief: as §1

HIPK1 = biological target: T13, HIPK1 (Homo sapiens, UniProt Q86Z02); assay: KinaseProfiler off-target kinase profiling; type: biochemical; settings: 10 μM, ATP near Km
T13 construct: purchased Millipore, Inc. (KinaseProfiler service)
Method in brief: as §1

Haspin = biological target: T14, Haspin (Homo sapiens, UniProt Q8TF76); assay: KinaseProfiler off-target kinase profiling; type: biochemical; settings: 10 μM, ATP near Km
T14 construct: purchased Millipore, Inc. (KinaseProfiler service)
Method in brief: as §1

IRR = biological target: T15, IRR (Homo sapiens, UniProt P14616); assay: KinaseProfiler off-target kinase profiling; type: biochemical; settings: 10 μM, ATP near Km
T15 construct: purchased Millipore, Inc. (KinaseProfiler service)
Method in brief: as §1

MRCKalpha = biological target: T16, MRCKalpha (Homo sapiens, UniProt Q5VT25); assay: KinaseProfiler off-target kinase profiling; type: biochemical; settings: 10 μM, ATP near Km
T16 construct: purchased Millipore, Inc. (KinaseProfiler service)
Method in brief: as §1

MST3 = biological target: T17, MST3 (Homo sapiens, UniProt Q9Y6E0); assay: KinaseProfiler off-target kinase profiling; type: biochemical; settings: 10 μM, ATP near Km
T17 construct: purchased Millipore, Inc. (KinaseProfiler service)
Method in brief: as §1

Plk1 = biological target: T18, Plk1 (Homo sapiens, UniProt P53350); assay: KinaseProfiler off-target kinase profiling; type: biochemical; settings: 10 μM, ATP near Km
T18 construct: purchased Millipore, Inc. (KinaseProfiler service)
Method in brief: as §1

ROCK-II = biological target: T19, ROCK-II (Homo sapiens, UniProt O75116); assay: KinaseProfiler off-target kinase profiling; type: biochemical; settings: 10 μM, ATP near Km
T19 construct: purchased Millipore, Inc. (KinaseProfiler service)
Method in brief: as §1

Rsk2 = biological target: T20, Rsk2 (Homo sapiens, UniProt P51812); assay: KinaseProfiler off-target kinase profiling; type: biochemical; settings: 10 μM, ATP near Km
T20 construct: purchased Millipore, Inc. (KinaseProfiler service)
Method in brief: as §1

Rsk4 = biological target: T21, Rsk4 (Homo sapiens, UniProt Q9UK32); assay: KinaseProfiler off-target kinase profiling; type: biochemical; settings: 10 μM, ATP near Km
T21 construct: purchased Millipore, Inc. (KinaseProfiler service)
Method in brief: as §1

ZAP-70 = biological target: T22, ZAP-70 (Homo sapiens, UniProt P43403); assay: KinaseProfiler off-target kinase profiling; type: biochemical; settings: 10 μM, ATP near Km
T22 construct: purchased Millipore, Inc. (KinaseProfiler service)
Method in brief: as §1

mTOR = biological target: T23, mTOR (Homo sapiens, UniProt P42345); assay: KinaseProfiler off-target kinase profiling; type: biochemical; settings: 10 μM, ATP near Km
T23 construct: purchased Millipore, Inc. (KinaseProfiler service)
Method in brief: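 Single-point screen at 10 μM compound, run in duplicate with ATP near each kinase's Km. Values are percent of control (POC), averaged over the two replicates.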

TrkA [1] = biological target: T24, TrkA (Homo sapiens, UniProt P04629); assay: KinaseProfiler off-target kinase profiling; type: biochemical; design: purchased Millipore, Inc. (KinaseProfiler service); settings: 10 μM, ATP near Km
Method: A representative compound of the invention (Example 2) was tested for off-target kinase activity at a concentration of 10 μM by Millipore, Inc. in their KinaseProfiler™ service against all the kinases available in their full kinase panel. The compound was run in duplicate at a concentration of ATP near the Km for each individual kinase according to Millipore's specifications.
Target sequence in this assay (P04629 33-796): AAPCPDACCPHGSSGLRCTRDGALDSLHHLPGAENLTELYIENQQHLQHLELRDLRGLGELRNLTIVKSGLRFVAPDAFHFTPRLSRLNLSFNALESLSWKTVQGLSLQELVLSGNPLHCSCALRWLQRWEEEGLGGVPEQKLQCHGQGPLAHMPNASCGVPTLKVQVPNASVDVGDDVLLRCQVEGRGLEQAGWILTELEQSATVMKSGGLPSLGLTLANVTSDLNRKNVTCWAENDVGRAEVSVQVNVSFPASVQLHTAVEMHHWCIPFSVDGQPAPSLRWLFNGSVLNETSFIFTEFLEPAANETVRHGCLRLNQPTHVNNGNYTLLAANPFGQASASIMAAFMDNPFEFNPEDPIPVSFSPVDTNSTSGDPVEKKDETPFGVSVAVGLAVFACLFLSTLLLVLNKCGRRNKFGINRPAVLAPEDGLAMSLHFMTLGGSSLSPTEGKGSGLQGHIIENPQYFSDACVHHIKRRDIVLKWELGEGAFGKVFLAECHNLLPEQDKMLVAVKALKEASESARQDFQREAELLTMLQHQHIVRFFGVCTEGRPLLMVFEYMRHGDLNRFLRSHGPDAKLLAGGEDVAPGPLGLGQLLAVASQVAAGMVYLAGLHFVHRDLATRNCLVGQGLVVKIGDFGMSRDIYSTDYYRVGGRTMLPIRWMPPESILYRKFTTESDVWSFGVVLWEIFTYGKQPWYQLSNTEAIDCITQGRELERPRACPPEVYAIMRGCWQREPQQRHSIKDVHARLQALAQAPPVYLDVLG

TrkA [2] = biological target: T24, TrkA; assay: TrkA LanthaScreen Eu Kinase Binding Assay; design: 6HIS tagged cytoplasmic domain from Invitrogen, Cat. No. PV3144; purchased Invitrogen PV3144; settings: averaged IC50; TR-FRET binding, 60 min, 22° C.; read-out: TrkA enzyme IC50
Method: TrkA binding activity was determined in a TrkA LanthaScreen™ Eu Kinase Binding Assay. 5 nM His-tagged recombinant human TrkA (6HIS tagged cytoplasmic domain from Invitrogen, Cat. No. PV3144) was incubated with 4 nM Alexa-Fluor® Tracer 236 (Invitrogen Cat. No. PV5592), 2 nM biotinylated anti-His (Invitrogen Cat. No. PV6090), and 2 nM europium-labeled Streptavidin (Invitrogen Cat. No. PV5899), in buffer (25 mM MOPS, pH 7.5, 5 mM MgCl2, 0.005% Triton X-100). Three fold serial dilutions of compounds of the invention in DMSO were added to a final percentage of 2% DMSO. After 60-minute incubation at 22° C., the reaction was measured using the EnVision mutlimode plate reader (PerkinElmer) via TR-FRET dual wavelength detection at […]. The percent of control was calculated using a ratiometric emission factor. The IC50 values were determined by fitting a four parameter model to the percent of control data.
Table A provides averaged IC50 values for compounds of the invention when tested in the assay of Example A, where A represents an averaged IC50 value <100 nM; and B represents an averaged IC50 value from 100 to 1,000 nM.

T18 sequence (P53350 whole entry): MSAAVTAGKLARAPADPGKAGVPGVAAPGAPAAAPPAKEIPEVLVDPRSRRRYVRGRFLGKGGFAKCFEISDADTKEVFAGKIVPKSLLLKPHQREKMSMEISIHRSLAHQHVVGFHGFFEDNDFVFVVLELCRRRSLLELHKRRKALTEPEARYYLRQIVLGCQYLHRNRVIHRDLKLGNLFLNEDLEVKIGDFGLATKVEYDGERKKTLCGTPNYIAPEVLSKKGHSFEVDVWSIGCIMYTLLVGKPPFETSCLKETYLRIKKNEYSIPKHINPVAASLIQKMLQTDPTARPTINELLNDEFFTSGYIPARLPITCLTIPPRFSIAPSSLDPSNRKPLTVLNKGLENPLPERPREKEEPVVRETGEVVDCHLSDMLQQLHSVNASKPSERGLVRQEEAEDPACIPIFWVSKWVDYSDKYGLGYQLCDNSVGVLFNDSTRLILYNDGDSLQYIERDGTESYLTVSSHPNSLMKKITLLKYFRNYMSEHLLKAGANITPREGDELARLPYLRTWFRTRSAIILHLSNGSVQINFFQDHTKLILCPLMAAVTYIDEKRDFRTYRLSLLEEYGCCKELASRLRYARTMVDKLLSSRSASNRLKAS
T12 sequence (P43250 whole entry): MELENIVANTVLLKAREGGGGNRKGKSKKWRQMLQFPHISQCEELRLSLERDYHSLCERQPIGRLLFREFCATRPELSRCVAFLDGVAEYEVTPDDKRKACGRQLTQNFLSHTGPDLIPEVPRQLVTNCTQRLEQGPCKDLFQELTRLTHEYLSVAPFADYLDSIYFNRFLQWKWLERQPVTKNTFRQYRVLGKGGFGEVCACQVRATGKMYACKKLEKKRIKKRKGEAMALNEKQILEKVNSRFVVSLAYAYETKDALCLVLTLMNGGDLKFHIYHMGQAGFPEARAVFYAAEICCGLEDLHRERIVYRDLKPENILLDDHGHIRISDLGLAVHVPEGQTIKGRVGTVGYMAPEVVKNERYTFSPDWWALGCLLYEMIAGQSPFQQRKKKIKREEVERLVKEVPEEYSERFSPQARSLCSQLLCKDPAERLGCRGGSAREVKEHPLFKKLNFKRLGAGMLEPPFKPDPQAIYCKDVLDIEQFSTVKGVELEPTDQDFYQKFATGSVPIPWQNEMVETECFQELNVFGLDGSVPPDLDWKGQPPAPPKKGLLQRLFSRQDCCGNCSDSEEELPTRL
T14 sequence (Q8TF76 whole entry): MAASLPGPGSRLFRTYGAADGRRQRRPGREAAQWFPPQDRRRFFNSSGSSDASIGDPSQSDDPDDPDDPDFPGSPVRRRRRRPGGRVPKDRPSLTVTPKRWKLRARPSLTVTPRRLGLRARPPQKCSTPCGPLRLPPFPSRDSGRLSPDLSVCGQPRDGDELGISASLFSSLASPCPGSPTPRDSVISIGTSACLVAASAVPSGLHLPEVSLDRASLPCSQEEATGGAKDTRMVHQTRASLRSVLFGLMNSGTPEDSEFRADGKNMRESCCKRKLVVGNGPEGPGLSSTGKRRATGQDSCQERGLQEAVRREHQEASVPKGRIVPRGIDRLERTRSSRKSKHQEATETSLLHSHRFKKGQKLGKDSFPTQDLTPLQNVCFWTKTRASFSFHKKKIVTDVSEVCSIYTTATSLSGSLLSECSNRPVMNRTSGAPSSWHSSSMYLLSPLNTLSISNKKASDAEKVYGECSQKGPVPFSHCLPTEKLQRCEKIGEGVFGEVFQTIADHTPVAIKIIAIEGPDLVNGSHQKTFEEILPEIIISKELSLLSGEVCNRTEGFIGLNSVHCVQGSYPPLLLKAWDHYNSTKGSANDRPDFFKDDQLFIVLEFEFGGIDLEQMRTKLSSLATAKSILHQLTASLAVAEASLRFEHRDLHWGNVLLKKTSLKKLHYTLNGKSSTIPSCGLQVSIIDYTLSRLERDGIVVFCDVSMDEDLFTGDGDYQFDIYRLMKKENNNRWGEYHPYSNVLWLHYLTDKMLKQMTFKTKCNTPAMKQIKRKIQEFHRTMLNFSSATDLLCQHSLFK
T13 sequence (Q86Z02 whole entry): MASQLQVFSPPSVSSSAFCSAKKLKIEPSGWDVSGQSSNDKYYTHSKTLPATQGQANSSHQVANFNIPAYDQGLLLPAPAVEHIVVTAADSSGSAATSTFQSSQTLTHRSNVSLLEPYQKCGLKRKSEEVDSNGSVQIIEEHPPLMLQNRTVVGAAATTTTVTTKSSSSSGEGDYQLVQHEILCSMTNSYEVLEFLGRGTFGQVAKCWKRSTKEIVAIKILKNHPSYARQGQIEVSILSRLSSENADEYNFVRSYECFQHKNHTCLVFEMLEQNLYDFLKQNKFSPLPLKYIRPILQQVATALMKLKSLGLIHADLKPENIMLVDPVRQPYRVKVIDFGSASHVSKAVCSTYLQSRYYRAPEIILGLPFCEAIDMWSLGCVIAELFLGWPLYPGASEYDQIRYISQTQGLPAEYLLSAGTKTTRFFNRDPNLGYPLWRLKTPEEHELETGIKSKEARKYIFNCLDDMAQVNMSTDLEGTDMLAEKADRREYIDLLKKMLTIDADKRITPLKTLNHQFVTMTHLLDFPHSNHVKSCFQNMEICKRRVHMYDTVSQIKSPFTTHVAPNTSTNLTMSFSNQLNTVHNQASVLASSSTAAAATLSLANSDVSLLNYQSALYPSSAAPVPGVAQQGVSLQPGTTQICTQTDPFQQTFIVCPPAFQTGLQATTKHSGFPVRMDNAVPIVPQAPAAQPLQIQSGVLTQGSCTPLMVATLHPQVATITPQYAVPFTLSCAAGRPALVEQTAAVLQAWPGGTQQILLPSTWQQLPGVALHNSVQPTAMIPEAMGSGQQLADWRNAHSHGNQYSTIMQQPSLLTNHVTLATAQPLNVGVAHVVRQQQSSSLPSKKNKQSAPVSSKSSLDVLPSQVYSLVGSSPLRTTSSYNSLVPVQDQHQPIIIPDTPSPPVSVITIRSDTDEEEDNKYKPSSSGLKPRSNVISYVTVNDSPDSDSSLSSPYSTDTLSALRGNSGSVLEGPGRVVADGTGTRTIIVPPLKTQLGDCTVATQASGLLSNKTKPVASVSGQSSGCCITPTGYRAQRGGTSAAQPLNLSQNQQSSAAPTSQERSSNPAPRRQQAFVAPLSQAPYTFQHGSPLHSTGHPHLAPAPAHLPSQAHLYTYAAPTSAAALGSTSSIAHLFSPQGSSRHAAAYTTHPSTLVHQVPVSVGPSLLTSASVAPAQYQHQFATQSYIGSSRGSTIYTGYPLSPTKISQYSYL
T11 sequence (P34947 whole entry): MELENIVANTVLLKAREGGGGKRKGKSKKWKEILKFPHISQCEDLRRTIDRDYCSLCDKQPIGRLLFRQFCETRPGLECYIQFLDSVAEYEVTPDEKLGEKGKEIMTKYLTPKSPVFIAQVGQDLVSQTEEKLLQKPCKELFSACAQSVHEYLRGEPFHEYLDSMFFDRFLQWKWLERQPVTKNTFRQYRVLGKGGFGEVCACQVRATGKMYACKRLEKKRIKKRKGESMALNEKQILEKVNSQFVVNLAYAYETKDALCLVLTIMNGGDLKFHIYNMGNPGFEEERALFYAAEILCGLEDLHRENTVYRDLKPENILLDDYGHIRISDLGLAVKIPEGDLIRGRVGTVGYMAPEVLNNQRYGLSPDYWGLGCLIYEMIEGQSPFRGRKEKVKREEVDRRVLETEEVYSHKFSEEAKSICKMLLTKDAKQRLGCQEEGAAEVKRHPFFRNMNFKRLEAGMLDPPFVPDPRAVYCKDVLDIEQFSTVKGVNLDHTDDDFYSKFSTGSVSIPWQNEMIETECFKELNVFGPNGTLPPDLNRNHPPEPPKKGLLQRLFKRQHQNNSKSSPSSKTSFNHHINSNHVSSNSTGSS
T7 sequence (O43293 whole entry): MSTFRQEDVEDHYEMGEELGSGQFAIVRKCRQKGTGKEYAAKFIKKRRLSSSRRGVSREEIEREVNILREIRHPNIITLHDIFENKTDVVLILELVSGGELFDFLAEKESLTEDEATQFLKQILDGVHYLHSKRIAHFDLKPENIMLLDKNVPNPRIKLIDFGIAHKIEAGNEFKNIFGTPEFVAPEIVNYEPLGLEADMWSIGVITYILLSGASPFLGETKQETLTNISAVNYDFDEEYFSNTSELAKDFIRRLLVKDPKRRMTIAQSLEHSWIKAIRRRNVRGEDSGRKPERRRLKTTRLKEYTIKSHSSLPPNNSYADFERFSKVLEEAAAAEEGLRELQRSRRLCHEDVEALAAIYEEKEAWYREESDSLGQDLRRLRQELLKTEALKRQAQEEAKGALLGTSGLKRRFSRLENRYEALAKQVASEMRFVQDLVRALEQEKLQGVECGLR

For `Cc1c(-c2cnn(C)c2)nn(-c2ccccc2)c1NC(=O)Nc1sc(C(F)(F)F)nc1-c1ccccc1` [Example 2, 1-(1′,4-dimethyl-1-phenyl-1H,1′H-[3,4′-bipyrazol]-5-yl)-3-(4-phenyl-2-(trifluoromethyl)thiazol-5-yl)urea], the “Avg POC” value (AURKA) was 116 POC, the “Avg POC” value (Axl) was 122.5 POC and the “Avg POC” value (BLK_m) was 112 POC. For the same compound, the “Avg POC” value (Bmx) was 129.5 POC, the “Avg POC” value (BrSK2) was 116.5 POC and the “Avg POC” value (DAPK1) was 126.5 POC. For the same compound, the “Avg POC” value (DAPK3) was 120 POC, the “Avg POC” value (EphA3) was 120 POC and the “Avg POC” value (EphB3) was 72.5 POC. The “Avg POC” value (Fms) was 89.5 POC, the “Avg POC” value (GRK5) was 82.5 POC and the “Avg POC” value (GRK6) was 98.5 POC. For the same compound, the “Avg POC” value (HIPK1) was 108 POC, the “Avg POC” value (Haspin) was 112.5 POC and the “Avg POC” value (IRR) was 109 POC. The “Avg POC” value (MRCKalpha) was 147.5 POC, the “Avg POC” value (MST3) was 157.5 POC and the “Avg POC” value (Plk1) was 103.5 POC. For the same compound, the “Avg POC” value (ROCK-II) was 115.5 POC, the “Avg POC” value (Rsk2) was 131 POC and the “Avg POC” value (Rsk4) was 98 POC. For the same compound, the “Avg POC” value (ZAP-70) was 133 POC, the “Avg POC” value (mTOR) was 92.5 POC and the “Avg POC” value (TrkA [1]) was −1 POC. For the same compound, the IC50 (TrkA [2]) was less than 100 nM.
